Values of other authors in patent publication US7811790B2, “Polymyxin synthetase and gene cluster thereof” (priority 2005, dated 2010).

Assays:
[1] = therapeutic use
[2] = water and organic solvent
[3] = tested on: antibiotics-resistant Klebsiella pneumoniae; details: ventriculis caused by antibiotics-resistant Klebsiella pneumoniae
[4] = tested on: Pseudomonas aeruginosa and Acinetobacter baumannii exhibiting resistance against the conventional antibiotics; details: intravenously injected, 60 patients
[5] = tested on: Pseudomonas aeruginosa having resistance against almost all antibiotics; details: 3 osteomyelitis patients
[6] = tested on: Acinetobacter having resistance against antibiotics; details: meningitis caused by antibiotic-resistant Acinetobacter

For polymyxin, which induced toxicity [1] is on record?
Its induced toxicity is “severe neurotoxicity and hepatotoxicity”.

What about the side effects [1] of the same substance?
The side effects was “serious side effects such as fever, eruption and pain”.

What about the solubility [2] of the same substance?
Its solubility is “soluble in both water and an organic solvent”.

For polymyxin B, which “effect on gram-positive bacteria” value (gram-positive bacteria) is on record?
Its value is “no effect”.

What about the effect on fungi (fungi) of the same substance?
Its effect on fungi is “no effect”.

And the “effect on anaerobic bacteria” value (anaerobic bacteria)?
Its value is “no effect”.

What about the “outcome of treatment of ventriculis” value [3] of the same substance?
Its value is “successfully treated”.

Which “killed % of Pseudomonas aeruginosa” value (Pseudomonas aeruginosa; at the concentration of 0.01 μg/ml) does the source give for polymyxin B sulfate here?
Its value is 88%.

Which “concentration showing lethal effect” value (Pseudomonas aeruginosa; organism not restated in the sentence, follows the Pseudomonas aeruginosa sentence) does the source give for polymyxin E here?
The value was 0.1 µg/mL.

And the “effect on gram-positive bacteria” value (gram-positive bacteria)?
The value was “no effect”.

And the effect on fungi (fungi)?
The effect on fungi was “no effect”.

And the “effect on anaerobic bacteria” value (anaerobic bacteria)?
The value was “no effect”.

What about the patients improved [4] of the same substance?
Its patients improved is 58%.

And the “outcome of treatment of osteomyelitis” value [5]?
The value was “improved”.

What about the “outcome of treatment of meningitis” value [6] of the same substance?
Its value is “successfully treated”.
